Test results taken from patent publication US20260077069A1, “COMBINATIONS OF CONTRAST AGENTS” (BAYER AKTIENGESELLSCHAFT, priority 2022, published 2026).
Like-named read-outs stand apart in the source and are kept apart here. Marks after values point to notes of the source that are not given here.

Experiments:
[1] = tested on: freshly isolated rat hepatocytes; assay: Uptake into freshly isolated rat hepatocytes; type: cell-based; conditions: for Inhibition Rifampicine: uptake with OATP1B1/1B3 inhibitor Rifampicine 1:1, each 100 uM
Method: Freshly isolated rat hepatocytes were received as described before (Papeleu P. et al. (2006) Isolation of Rat Hepatocytes. In: Phillips I. R., Shephard E. A. (eds) Cytochrome P450 Protocols. Methods in Molecular Biology, vol 320. Humana Press, Totowa, NJ. https://doi.org/10.1385/1-59259-998-2:229). The rat hepatocytes were incubated (2.5·10^5 cells/well) for 2.5 to 4 h in collagen coated 24-well plates (Fa. Beckton Dickinson Biocoat, cell environments, Collagen I Cellware) in Williams E-medium (Fa. Sigma W1878) in an incubator (37° C., 5% CO2 and […]). After incubation the adherent hepatocytes were washed once with 37° C. Hepes carbonate transport buffer (500 μL/well). The test items and RC3 were prepared from stock solutions (180 to 500 mM concentration) in Hepes carbonate transport buffer at pH 7.4 to reach a final concentration of 100 μmol Gd/L. The specific uptake of the test item or RC3 into rat hepatocytes via OATP1B1 and OATP1B3 was challenged using a known OATP1B1/1B3 inhibitor (Rifampicine, Fa. Sigma R3501, test item and inhibitor 1:1 each 100 µM final concentration). The prepared rat hepatocyte plates were incubated with test solutions (500 μL/well) at 37° C. for 10 min using a thermoshaker (Fa. Grant Bio, PHMP). Triplicates were performed for each test item. After incubating the cells were washed once with cold PBS buffer (Fa. Gibco, Dulbeccos PBS (+)). After washing the intact hepatocytes were lysed by addition of 500 μL cold 0.01% Triton-X 100 in Millipore water for 1 h. The strongly hypo-osmolar water led to cell membrane rupture and the release of the intracellular Gd-compound. After 1 h 500 μL of 10 nM Terbium ICP-MS standard was added in 2% nitric acid and 0.01% Triton 100 before the Gadolinium concentrations in the lysate were measured using ICP-MS (Agilent 8900, singleQuad, integr. Time 0.3 s, no gas, 5 replicates, Gd m/z 157, Tb m/z 159). As a reference standard RC3 is used in the same well plate. The hepatocyte uptake of the test compound is calculated relative to RC3 (resulting in the unit % of RC3).

[2] = 1.5 T, 37° C., Invest Radiol. 2005, cited from earlier work; for r1 plasma: bovine plasma instead of human plasma
[3] = 37° C., from Robic et al. Invest Radiol. 2019, cited from earlier work
[4] = Relaxivity measurements at 1.41 T in water and human plasma; type: physicochemical; conditions: 37° C., normalized to Gd
Method: Relaxivity measurements at 1.41 T were performed using a MiniSpec mq60 spectrometer (Bruker Analytik, Karlsruhe, Germany) operating at a resonance frequency of 60 MHz and a temperature of 37° C. The T1 relaxation times were determined using the standard inversion recovery (IR) method with a fixed relaxation delay of at least 5×T1. The variable inversion time (TI) was calculated automatically by the standard software of the MiniSpec mq60 (8 steps). The T2 measurements were performed by using a Carr-Purcell-Meiboom-Gill (CPMG) pulse sequence, applying a relaxation delay of at least 5×T1.
Each relaxivity measurement was performed using three different Gd concentrations (3 concentrations between 0.05 and 2 mM). The T1 and T2 relaxation times of the example compounds were measured in water and human plasma. Human plasma preparation: For each experiment fresh blood was taken from a volunteer using 10 mL citrate-tubes (Sarstedt S-Monovette 02.1067.001, 10 mL, Citrate). The 10 mL citrate-tubes were carefully inverted 10 times to mix blood and anticoagulant and centrifuged for 15 min at 1811 g at RT (Eppendorf, Centrifuge 5810R).
The relaxivities ri (where i=1, 2) were calculated based on the measured relaxation rates Ri in water and plasma:
where Ri(0) represent the relaxation rate of the respective solvent and CGd the concentration of the compound normalized to the Gadolinium. The Gadolinium concentrations of the investigated solutions were verified by Inductively Coupled Plasma Mass Spectrometry (ICP-MS Agilent 7500a, Waldbronn, Germany).

| SMILES | Inhibition Rifampicine [1] [% inhibition] | r1 plasma [2] | r1 water [2] | r1 human plasma [4] [L/mmol/s] | r1 water [4] [L/mmol/s] | further results |
| --- | --- | --- | --- | --- | --- | --- |
| CCOc1ccc(CC(CN(CCN(CC(=O)[O-])CC(=O)[O-])CC(=O)[O-])N(CC(=O)[O-])CC(=O)[O-])cc1.[Gd+3].[Na+].[Na+] (stereo not shown) [RC 3, gadoxetate disodium] | 97 | 6.9^# L·mmol^−1·s^−1 | 4.7^# L·mmol^−1·s^−1 | – | – | – |
| CNC[C@H](O)[C@@H](O)[C@H](O)[C@H](O)CO.O=C([O-])CN1CCN(CC(=O)[O-])CCN(CC(=O)O)CCN(CC(=O)[O-])CC1.[Gd+3] [RC 2, gadoterate meglumine] | – | 5.2^# L·mmol^−1·s^−1 | 3.3^# L·mmol^−1·s^−1 | – | – | – |
| O=C(CCC(C(=O)[O-])N1CCN(C(CCC(=O)NCC(O)CO)C(=O)[O-])Cc2cccc(n2)CN(C(CCC(=O)NCC(O)CO)C(=O)[O-])CC1)NCC(O)CO.[Gd+3] (stereo not shown) [Compound 11] | – | – | – | – | – | r1 human plasma ([3]; human plasma): 12.8** L·mmol^−1·s^−1; r1 water ([3]; water): 12.2** L·mmol^−1·s^−1 |
| O=C([O-])CN(CCN(CC(=O)[O-])CC(=O)[O-])CCN(CC(=O)[O-])C(COCc1ccccc1)C(=O)[O-].[Gd+3].[H+].[H+] (stereo not shown) [RC 4, gadobenic acid, reference compound] | 79 | 6.3^# L·mmol^−1·s^−1 | 4.0^# L·mmol^−1·s^−1 | – | – | Uptake rat hepatocytes ([1]; 100 μmol Gd/L, 10 min, 37° C., Gd in lysate by ICP-MS, relative to RC3): 9 % of RC3 |
| O=C([O-])CN1CCN(CC(=O)[O-])CCN([C@H](CO)[C@H](O)CO)CCN(CC(=O)[O-])CC1.[Gd+3] (racemic) [RC 1, gadobutrol] | – | 3.6^# L·mmol^−1·s^−1 | 2.9^# L·mmol^−1·s^−1 | – | – | – |
| CCOCCOc1ccc(CC(C(=O)[O-])N2CCN(CC(=O)[O-])CCN(C(CC)C(=O)O)CCN(CC(=O)[O-])CC2)cc1.[Gd+3] (stereo not shown) [Compound 13] | 99 | – | – | 7.4 | 4.5 | – |
| CCOCCOCCOc1ccc(CCC[C@H](C(=O)O)N2CCN([C@H](CO)C(=O)[O-])CCN([C@H](CO)C(=O)[O-])CCN([C@H](CO)C(=O)[O-])CC2)cc1.[Gd+3] [Compound 16] | 92 | – | – | 9.0 | 5.3 | – |
| CCOc1ccc(CC2CN(CC(=O)[O-])CCN(CC(=O)[O-])CCN(CC(=O)O)CCN2CC(=O)[O-])cc1.[Gd+3] (stereo not shown) [Compound 23] | 96 | – | – | 6.2 | 4.5 | – |
